Measurements reported in US12486250B2, “Muscarinic receptor 4 antagonists and methods of use” (Neurocrine Biosciences, Inc., priority 2019, dated 2025).

Columns and labels:
Experiment in all cases: Radioligand ([3H]N-methylscopolamine) binding assay, CHO cell membranes
[1] = target: T1, human M1 receptor (Homo sapiens, UniProt P11229); conditions: 1.5 nM tritiated N-methylscopolamine, 90 minutes at 37° C.; read-out: Binding affinity (Ki) M1
T1 construct: expressed in transfected cells; host or cells: CHO cells
T1 sequence (P11229 1-460): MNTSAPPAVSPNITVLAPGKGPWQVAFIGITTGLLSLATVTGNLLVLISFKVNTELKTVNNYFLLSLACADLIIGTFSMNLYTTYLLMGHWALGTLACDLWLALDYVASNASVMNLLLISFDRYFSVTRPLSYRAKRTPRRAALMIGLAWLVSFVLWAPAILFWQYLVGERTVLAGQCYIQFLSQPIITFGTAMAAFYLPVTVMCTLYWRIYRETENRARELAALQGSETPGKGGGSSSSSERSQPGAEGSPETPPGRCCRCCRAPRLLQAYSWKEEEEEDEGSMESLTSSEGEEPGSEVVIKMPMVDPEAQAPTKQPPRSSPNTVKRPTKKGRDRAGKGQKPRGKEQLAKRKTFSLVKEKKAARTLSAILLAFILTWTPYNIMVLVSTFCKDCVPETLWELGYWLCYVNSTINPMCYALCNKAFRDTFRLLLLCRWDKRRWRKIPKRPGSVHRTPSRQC
Method: (§1) Binding affinity (Ki) of compounds was measured by inhibition of radioligand binding to membranes from CHO cells expressing human M1, M2, M3, M4 and M5 receptors. Membranes were prepared by nitrogen cavitation and differential centrifugation as previously described (Hoare et al., Mol. Pharmacol. 2003 March; 63(3): 751-65). The radioligand employed was tritiated N-methylscopolamine, used at a concentration of 1.5 nM. A dose-response of twelve concentrations of compound was used, ranging from […]. The assay buffer was 50 mM HEPES, 100 mM NaCl, 5 mM MgCl2, 1 mM ethylenediaminetetraacetic acid, pH-adjusted to pH 7.4. Membranes, radioligand and compound were incubated together for 90 minutes at 37° C., in a total volume of 150 μL in a 96-well plate. Receptor-bound radioligand was then collected by harvesting the assay over glass fiber filters pretreated with polyethylenimine to trap the cell membranes, using rapid vacuum filtration. Harvesting and radioactivity counting was conducted as previously described (see, e.g., Hoare et al., Mol. Pharmacol. 2003 63(3):751-65); Erratum at Mol. Pharmacol. 2005 July; 68(1): 260).

[2] = target: T2, human M2 receptor (Homo sapiens, UniProt P08172); conditions: 1.5 nM tritiated N-methylscopolamine, 90 minutes at 37° C.; read-out: Binding affinity (Ki) M2
T2 construct: expressed in transfected cells; host or cells: CHO cells
T2 sequence (P08172 1-466): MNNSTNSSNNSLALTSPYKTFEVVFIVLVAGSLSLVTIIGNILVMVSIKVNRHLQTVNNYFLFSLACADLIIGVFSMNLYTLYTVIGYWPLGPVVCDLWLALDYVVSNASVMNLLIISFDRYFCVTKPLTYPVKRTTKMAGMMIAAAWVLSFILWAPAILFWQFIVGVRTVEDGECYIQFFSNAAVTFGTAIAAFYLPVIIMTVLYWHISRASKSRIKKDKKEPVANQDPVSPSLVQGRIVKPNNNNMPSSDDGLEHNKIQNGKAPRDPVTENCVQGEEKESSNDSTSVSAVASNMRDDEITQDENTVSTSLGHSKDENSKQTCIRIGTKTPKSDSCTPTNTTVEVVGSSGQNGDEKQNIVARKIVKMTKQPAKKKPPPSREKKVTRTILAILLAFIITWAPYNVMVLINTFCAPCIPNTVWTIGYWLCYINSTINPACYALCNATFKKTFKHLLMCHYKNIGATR
Method: as §1

[3] = target: T3, human M3 receptor (Homo sapiens, UniProt P20309); conditions: 1.5 nM tritiated N-methylscopolamine, 90 minutes at 37° C.; read-out: Binding affinity (Ki) M3
T3 construct: expressed in transfected cells; host or cells: CHO cells
T3 sequence (P20309 whole entry): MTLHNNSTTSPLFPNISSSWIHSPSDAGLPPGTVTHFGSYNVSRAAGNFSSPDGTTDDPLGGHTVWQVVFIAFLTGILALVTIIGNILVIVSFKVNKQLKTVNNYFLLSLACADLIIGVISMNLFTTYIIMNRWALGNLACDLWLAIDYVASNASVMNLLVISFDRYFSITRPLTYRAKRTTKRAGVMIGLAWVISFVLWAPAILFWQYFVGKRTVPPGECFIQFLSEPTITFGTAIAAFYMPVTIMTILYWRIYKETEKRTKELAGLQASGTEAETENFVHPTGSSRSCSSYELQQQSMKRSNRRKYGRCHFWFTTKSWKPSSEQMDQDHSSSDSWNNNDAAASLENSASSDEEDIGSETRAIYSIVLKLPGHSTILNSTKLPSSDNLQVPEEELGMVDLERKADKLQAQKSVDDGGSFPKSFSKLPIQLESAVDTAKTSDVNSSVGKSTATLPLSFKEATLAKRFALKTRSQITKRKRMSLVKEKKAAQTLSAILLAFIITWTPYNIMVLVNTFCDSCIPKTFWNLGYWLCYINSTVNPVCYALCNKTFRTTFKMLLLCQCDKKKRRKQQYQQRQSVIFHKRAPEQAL
Method: as §1

[4] = target: T4, human M4 receptor (Homo sapiens, UniProt P08173); conditions: 1.5 nM tritiated N-methylscopolamine, 90 minutes at 37° C.; read-out: Binding affinity (Ki) M4
T4 construct: expressed in transfected cells; host or cells: CHO cells
T4 sequence (P08173 1-479): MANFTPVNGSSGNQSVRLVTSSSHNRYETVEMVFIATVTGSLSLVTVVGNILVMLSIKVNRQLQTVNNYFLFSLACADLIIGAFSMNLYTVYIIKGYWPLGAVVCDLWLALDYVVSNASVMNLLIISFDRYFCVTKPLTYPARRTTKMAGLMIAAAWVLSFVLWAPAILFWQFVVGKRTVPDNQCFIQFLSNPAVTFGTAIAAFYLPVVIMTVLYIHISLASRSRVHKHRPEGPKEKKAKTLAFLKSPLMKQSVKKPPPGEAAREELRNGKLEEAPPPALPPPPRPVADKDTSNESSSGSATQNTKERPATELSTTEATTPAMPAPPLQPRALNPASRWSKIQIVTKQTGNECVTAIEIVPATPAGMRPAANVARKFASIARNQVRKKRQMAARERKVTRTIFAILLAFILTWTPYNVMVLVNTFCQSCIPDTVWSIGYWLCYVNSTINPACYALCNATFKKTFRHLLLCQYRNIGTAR
Method: as §1

[5] = target: T5, human M5 receptor (Homo sapiens, UniProt P08912); conditions: 1.5 nM tritiated N-methylscopolamine, 90 minutes at 37° C.; read-out: Binding affinity (Ki) M5
T5 construct: expressed in transfected cells; host or cells: CHO cells
T5 sequence (P08912 1-532): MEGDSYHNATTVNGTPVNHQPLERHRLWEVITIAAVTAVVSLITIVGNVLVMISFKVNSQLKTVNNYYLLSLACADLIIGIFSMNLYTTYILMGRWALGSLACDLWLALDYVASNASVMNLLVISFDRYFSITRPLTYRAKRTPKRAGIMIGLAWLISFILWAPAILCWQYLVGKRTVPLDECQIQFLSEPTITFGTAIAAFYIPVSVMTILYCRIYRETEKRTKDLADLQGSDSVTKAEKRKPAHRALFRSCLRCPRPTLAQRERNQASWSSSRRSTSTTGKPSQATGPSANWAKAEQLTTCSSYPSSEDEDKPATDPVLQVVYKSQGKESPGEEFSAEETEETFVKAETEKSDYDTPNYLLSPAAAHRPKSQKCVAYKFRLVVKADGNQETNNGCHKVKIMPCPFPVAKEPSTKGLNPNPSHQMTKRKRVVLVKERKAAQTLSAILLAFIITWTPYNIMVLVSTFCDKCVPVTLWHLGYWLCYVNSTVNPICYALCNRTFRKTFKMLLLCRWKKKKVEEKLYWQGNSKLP
Method: as §1

Row | Ki [1] | Ki [2] | Ki [3] | Ki [4] | Ki [5] | Compound
1 | ≥ 1000 nM | 1860 nM | ≥ 1000 nM | 1.8 nM | ≥ 1000 nM | C[C@@H]1CN(c2cnc(C(F)(F)F)cn2)C[C@H](C)N1C(=O)OCCC1CCN(Cc2ccccc2)CC1 [Compound 1, 2-(1-benzylpiperidin-4-yl)ethyl (2R,6S)-2,6-dimethyl-4-[5-(trifluoromethyl)pyrazin-2-yl]piperazine-1-carboxylate]
2 | ≥ 1000 nM | 271 nM | ≥ 1000 nM | 4 nM | ≥ 1000 nM | C[C@@H]1CN(c2cnc(C(F)(F)F)cn2)C[C@@H](C)N1C(=O)OCCC1CCN(Cc2ccccc2)CC1 [Compound 2, 2-(1-benzylpiperidin-4-yl)ethyl (2R,6R)-2,6-dimethyl-4-[5-(trifluoromethyl)pyrazin-2-yl]piperazine-1-carboxylate]
3 |  | 520 nM |  | 3 nM |  | C[C@@H]1CN(c2ncc(C#N)cn2)C[C@H](C)N1C(=O)NCCC1CCN(Cc2ccccc2)CC1 [Compound 3A]
4 |  | 665 nM |  | 5 nM |  | C[C@@H]1CN(c2cnc(C(F)(F)F)cn2)C[C@@H](C)N1C(=O)NCCC1CCN(Cc2ccccc2)CC1 [Compound 4A]
